Measured values reported in US20210052771A1, “NANOPARTICULATE MINERALIZED COLLAGEN GLYCOSAMINOGLYCAN SCAFFOLD WITH AN ANTI-RESORPTION FACTOR” (THE REGENTS OF THE UNIVERSITY OF CALIFORNIA, priority 2018, published 2021).

How the values were obtained:
[1] = test system: MEK1/ERK1/2 signaling pathway; assay: Western blot of hMSCs on Col-GAG and MC-GAG with PD98059; format: cell-based, human; conditions: 50 μM
Experimental: (§1) Osteogenic differentiation of hMSCs on Col-GAG and MC-GAG: 3×10^5 hMSCs were seeded onto 8 mm discs of CG-GAG and MC-GAG scaffolds in proliferation media. 24 h after seeding, media was switched to osteogenic differentiation media consisting of 10 mM β-glycerophosphate, 50 μg/mL ascorbic acid, and 0.1 μM dexamethasone. For inhibitor studies, scaffolds were treated or untreated with dorsomorphin homologue 1 (DMH1; Sigma-Aldrich) or PD98059 (Cell Signaling Technologies, Beverly, Mass.) separately, all at a concentration of 50 μM. Fresh DMH1 and PD98059 were added to each media change every 3 days.
(§2) Western blot: Lysates were prepared from scaffolds at 0, 4, 14, and 24 days of culture using SDS sample buffer and equal amounts were subjected to 4-20% SDS-PAGE (Bio-Rad, Hercules, Calif.). Western blot analysis was carried out with antibodies against OPG, RANKL, phosphorylated small mothers against decapentaplegic 1/5 (p-Smad1/5), total Smad5, phosphorylated extracellular regulated kinase 1/2 (p-ERK1/2), total ERK1/2, and (3-actin followed by 1:4000 dilutions of HRP-conjugated IgG antibodies (Bio-Rad, Hercules, Calif.) and an enhanced chemiluminescent substrate (Thermo Scientific, Rockford, Ill.). For detection of p-Smad1/5 and total Smad5, 10 μg of lysate was loaded per lane. For detection of OPG, RANKL, p-ERK1/2, total ERK1/2, and β-actin, 20 μg of lysate was loaded per lane. All antibodies were obtained from Cell Signaling Technologies (Beverly, Mass.) with the exception of RANKL, OPG and β-actin antibodies which were obtained from Santa Cruz Biotechnology (Santa Cruz, Calif.). Imaging analysis was carried out using ImageJ (NIH, Bethesda, Md.).

[2] = test system: canonical BMP receptor signaling pathway; assay: Western blot of hMSCs on Col-GAG and MC-GAG with DMH1; format: cell-based, human; conditions: 50 μM
Experimental: as §1, §2

[3] = all timepoints, either material

## COc1cccc(-c2cc(=O)c3ccccc3o2)c1N [PD98059]
[1]
  phosphorylated Smad1/5, total Smad5, total ERK1/2, or actin: no effects
[1]; Col-GAG
  OPG protein expression: no differences
  RANKL expression: no differences
[1]; MC-GAG, all timepoints
  OPG protein expression: decreased
[1]; MC-GAG, particularly day 24
  RANKL expression: downregulated
[1]; [3]
  phosphorylated ERK1/2: decreased

## CC(C)Oc1ccc(-c2cnc3c(-c4ccnc5ccccc45)cnn3c2)cc1 [DMH1, dorsomorphin homologue 1]
[2]
  total Smad5, total ERK1/2, RANKL, or actin: No differences
[2]; MC-GAG at day 4
  phosphorylated ERK1/2: small elevation
[2]; [3]
  phosphorylation of Smad1/5: partially decreased
[2]; both Col-GAG and MC-GAG, particularly day 14
  OPG expression: increased
